From patent US8952024B2, “Herbicidal pyrimidone derivatives” (E I du Pont de Nemours and Company, priority 2009, dated 2015)

Experiments:
Assay in all cases: Test B pre-/postemergence plant response
Format in all cases: in vivo
[1] = test system: lambsquarters (Chenopodium album)
Summary of the method: (§1)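 Ratings reflect visual comparison with untreated controls 13 to 15 days after application, from 0 (no effect) to 100 (complete control). Application was preemergence to seeded loam/sand soil or postemergence to 1- to 4-leaf plants, with compound in a non-phytotoxic, surfactant-containing solvent.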

[2] = test system: soybean (Glycine max)
Summary of the method: as §1

[3] = test system: wild oat (Avena fatua)
Summary of the method: as §1

[4] = test system: corn (Zea mays)
Summary of the method: as §1

[5] = test system: goosegrass (Eleusine indica)
Summary of the method: as §1

[6] = test system: downy bromegrass (Bromus tectorum)
Summary of the method: as §1

[7] = test system: velvetleaf (Abutilon theophrasti)
Summary of the method: as §1

[8] = test system: morningglory (Ipomoea coccinea)
Summary of the method: as §1

[9] = test system: large crabgrass (Digitaria sanguinalis)
Summary of the method: as §1

[10] = test system: woolly cupgrass (Eriochloa villosa)
Summary of the method: as §1

[11] = test system: green foxtail (Setaria viridis)
Summary of the method: as §1

[12] = test system: blackgrass (Alopecurus myosuroides)
Summary of the method: as §1

[13] = test system: Surinam grass (Brachiaria decumbens)
Summary of the method: as §1

[14] = test system: kochia (Kochia scoparia)
Summary of the method: as §1

[15] = test system: johnsongrass (Sorghum halepense)
Summary of the method: as §1

[16] = test system: yellow nutsedge (Cyperus esculentus)
Summary of the method: as §1

[17] = test system: pigweed (Amaranthus retroflexus)
Summary of the method: as §1

[18] = 31 g ai/ha, postemergence, scale 0 to 100, 0 is no effect, 100 is complete control
[19] = 250 g ai/ha, Preemergence, 0 to 100 scale
[20] = Postemergence, 62 g ai/ha, scale 0 (no effect) to 100 (complete control), 13 to 15 days
[21] = Postemergence, 125 g ai/ha, visual rating after 13 to 15 days, scale 0 (no effect) to 100 (complete control)
[22] = Postemergence, 250 g ai/ha, scale 0 to 100 (0 no effect, 100 complete control)
[23] = Preemergence, 31 g ai/ha, scale 0 to 100 (0 no effect, 100 complete control)
[24] = Preemergence, 62 g ai/ha, scale 0 to 100, 0 no effect, 100 complete control
[25] = Preemergence, 125 g ai/ha, scale 0 to 100, 0 no effect, 100 complete control

Cc1ccc(Cl)cc1-n1c(-c2ccccc2)ncc(C(=O)C2=C(O)CCCC2=O)c1=O [Compound 52]
Plant response rating, Lambsquarters [1, 18]: 85
Plant response rating, Lambsquarters [1, 19]: 100
Plant response rating, Lambsquarters [1, 20]: 85
Plant response rating, Lambsquarters [1, 21]: 90
Plant response rating, Lambsquarters [1, 22]: 95
Plant response rating, Lambsquarters [1, 23]: 98
Plant response rating, Lambsquarters [1, 24]: 100
Plant response rating, Lambsquarters [1, 25]: 100
Plant response rating, Soybean [2, 18]: 80
Plant response rating, Soybean [2, 19]: 80
Plant response rating, Soybean [2, 20]: 95
Plant response rating, Soybean [2, 21]: 95
Plant response rating, Soybean [2, 22]: 98
Plant response rating, Soybean [2, 23]: 0
Plant response rating, Soybean [2, 24]: 0
Plant response rating, Soybean [2, 25]: 55
Plant response rating, Oat, Wild [3, 18]: 90
Plant response rating, Oat, Wild [3, 19]: 60
Plant response rating, Oat, Wild [3, 20]: 90
Plant response rating, Oat, Wild [3, 21]: 95
Plant response rating, Oat, Wild [3, 22]: 95
Plant response rating, Oat, Wild [3, 23]: 0
Plant response rating, Oat, Wild [3, 24]: 5
Plant response rating, Oat, Wild [3, 25]: 5
Plant response rating, Corn [4, 18]: 30
Plant response rating, Corn [4, 19]: 0
Plant response rating, Corn [4, 20]: 45
Plant response rating, Corn [4, 21]: 65
Plant response rating, Corn [4, 22]: 80
Plant response rating, Corn [4, 23]: 0
Plant response rating, Corn [4, 24]: 0
Plant response rating, Corn [4, 25]: 0
Plant response rating, Goosegrass [5, 18]: 75
Plant response rating, Goosegrass [5, 19]: 100
Plant response rating, Goosegrass [5, 20]: 80
Plant response rating, Goosegrass [5, 21]: 85
Plant response rating, Goosegrass [5, 22]: 85
Plant response rating, Goosegrass [5, 23]: 98
Plant response rating, Goosegrass [5, 24]: 100
Plant response rating, Goosegrass [5, 25]: 100
Plant response rating, Bromegrass, Downy [6, 18]: 50
Plant response rating, Bromegrass, Downy [6, 19]: 5
Plant response rating, Bromegrass, Downy [6, 20]: 55
Plant response rating, Bromegrass, Downy [6, 21]: 60
Plant response rating, Bromegrass, Downy [6, 22]: 70
Plant response rating, Bromegrass, Downy [6, 23]: 0
Plant response rating, Bromegrass, Downy [6, 24]: 5
Plant response rating, Bromegrass, Downy [6, 25]: 5
Plant response rating, Velvetleaf [7, 18]: 95
Plant response rating, Velvetleaf [7, 19]: 100
Plant response rating, Velvetleaf [7, 20]: 98
Plant response rating, Velvetleaf [7, 21]: 98
Plant response rating, Velvetleaf [7, 22]: 100
Plant response rating, Velvetleaf [7, 23]: 80
Plant response rating, Velvetleaf [7, 24]: 98
Plant response rating, Velvetleaf [7, 25]: 98
Plant response rating, Morningglory [8, 18]: 10
Plant response rating, Morningglory [8, 19]: 55
Plant response rating, Morningglory [8, 20]: 45
Plant response rating, Morningglory [8, 21]: 75
Plant response rating, Morningglory [8, 22]: 85
Plant response rating, Morningglory [8, 23]: 0
Plant response rating, Morningglory [8, 24]: 0
Plant response rating, Morningglory [8, 25]: 45
Plant response rating, Crabgrass, Large [9, 18]: 85
Plant response rating, Crabgrass, Large [9, 19]: 100
Plant response rating, Crabgrass, Large [9, 20]: 90
Plant response rating, Crabgrass, Large [9, 21]: 90
Plant response rating, Crabgrass, Large [9, 22]: 98
Plant response rating, Crabgrass, Large [9, 23]: 60
Plant response rating, Crabgrass, Large [9, 24]: 98
Plant response rating, Crabgrass, Large [9, 25]: 100
Plant response rating, Cupgrass, Woolly [10, 18]: 70
Plant response rating, Cupgrass, Woolly [10, 19]: 80
Plant response rating, Cupgrass, Woolly [10, 20]: 75
Plant response rating, Cupgrass, Woolly [10, 21]: 85
Plant response rating, Cupgrass, Woolly [10, 22]: 95
Plant response rating, Cupgrass, Woolly [10, 23]: 0
Plant response rating, Cupgrass, Woolly [10, 24]: 10
Plant response rating, Cupgrass, Woolly [10, 25]: 65
Plant response rating, Foxtail, Green [11, 18]: 95
Plant response rating, Foxtail, Green [11, 19]: 100
Plant response rating, Foxtail, Green [11, 20]: 98
Plant response rating, Foxtail, Green [11, 21]: 98
Plant response rating, Foxtail, Green [11, 22]: 100
Plant response rating, Foxtail, Green [11, 23]: 0
Plant response rating, Foxtail, Green [11, 24]: 30
Plant response rating, Foxtail, Green [11, 25]: 45
Plant response rating, Blackgrass [12, 18]: 5
Plant response rating, Blackgrass [12, 19]: 10
Plant response rating, Blackgrass [12, 20]: 5
Plant response rating, Blackgrass [12, 21]: 25
Plant response rating, Blackgrass [12, 22]: 30
Plant response rating, Blackgrass [12, 23]: 0
Plant response rating, Blackgrass [12, 24]: 0
Plant response rating, Blackgrass [12, 25]: 0
Plant response rating, Surinam Grass [13, 18]: 75
Plant response rating, Surinam Grass [13, 19]: 98
Plant response rating, Surinam Grass [13, 20]: 85
Plant response rating, Surinam Grass [13, 21]: 90
Plant response rating, Surinam Grass [13, 22]: 98
Plant response rating, Surinam Grass [13, 23]: 10
Plant response rating, Surinam Grass [13, 24]: 25
Plant response rating, Surinam Grass [13, 25]: 95
Plant response rating, Kochia [14, 18]: 20
Plant response rating, Kochia [14, 20]: 25
Plant response rating, Kochia [14, 21]: 55
Plant response rating, Kochia [14, 22]: 65
Plant response rating, Johnsongrass [15, 18]: 75
Plant response rating, Johnsongrass [15, 19]: 95
Plant response rating, Johnsongrass [15, 20]: 85
Plant response rating, Johnsongrass [15, 21]: 90
Plant response rating, Johnsongrass [15, 22]: 95
Plant response rating, Johnsongrass [15, 23]: 10
Plant response rating, Johnsongrass [15, 24]: 75
Plant response rating, Johnsongrass [15, 25]: 90
Plant response rating, Nutsedge, Yellow [16, 18]: 20
Plant response rating, Nutsedge, Yellow [16, 19]: 90
Plant response rating, Nutsedge, Yellow [16, 20]: 25
Plant response rating, Nutsedge, Yellow [16, 21]: 45
Plant response rating, Nutsedge, Yellow [16, 22]: 65
Plant response rating, Nutsedge, Yellow [16, 23]: 0
Plant response rating, Nutsedge, Yellow [16, 24]: 25
Plant response rating, Nutsedge, Yellow [16, 25]: 80
Plant response rating, Pigweed [17, 18]: 85
Plant response rating, Pigweed [17, 19]: 100
Plant response rating, Pigweed [17, 20]: 90
Plant response rating, Pigweed [17, 21]: 95
Plant response rating, Pigweed [17, 22]: 98
Plant response rating, Pigweed [17, 23]: 90
Plant response rating, Pigweed [17, 24]: 100
Plant response rating, Pigweed [17, 25]: 100
